Patent publication US20230141603A1, “BENZODIAZEPINE DERIVATIVES AS GABA A GAMMA1 PAM” (Hoffmann-La Roche Inc., priority 2021, published 2023)

Target: T1, h-GABAA α2β2γ1 (Homo sapiens, UniProt P47869+Q8N1C3)
T1 sequence (P47869 29-451): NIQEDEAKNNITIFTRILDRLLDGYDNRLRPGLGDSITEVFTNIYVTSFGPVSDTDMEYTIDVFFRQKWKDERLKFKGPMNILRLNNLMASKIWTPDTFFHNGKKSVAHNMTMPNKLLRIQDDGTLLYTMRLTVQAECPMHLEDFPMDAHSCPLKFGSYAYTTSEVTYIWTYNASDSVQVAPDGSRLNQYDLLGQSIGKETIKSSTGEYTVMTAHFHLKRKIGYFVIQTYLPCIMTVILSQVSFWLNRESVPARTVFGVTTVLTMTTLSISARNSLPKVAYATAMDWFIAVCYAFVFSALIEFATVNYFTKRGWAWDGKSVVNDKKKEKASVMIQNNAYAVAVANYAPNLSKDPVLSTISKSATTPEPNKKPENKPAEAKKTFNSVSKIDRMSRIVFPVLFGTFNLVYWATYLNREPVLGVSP
T1 sequence (P47870 25-512 partner limits assumed): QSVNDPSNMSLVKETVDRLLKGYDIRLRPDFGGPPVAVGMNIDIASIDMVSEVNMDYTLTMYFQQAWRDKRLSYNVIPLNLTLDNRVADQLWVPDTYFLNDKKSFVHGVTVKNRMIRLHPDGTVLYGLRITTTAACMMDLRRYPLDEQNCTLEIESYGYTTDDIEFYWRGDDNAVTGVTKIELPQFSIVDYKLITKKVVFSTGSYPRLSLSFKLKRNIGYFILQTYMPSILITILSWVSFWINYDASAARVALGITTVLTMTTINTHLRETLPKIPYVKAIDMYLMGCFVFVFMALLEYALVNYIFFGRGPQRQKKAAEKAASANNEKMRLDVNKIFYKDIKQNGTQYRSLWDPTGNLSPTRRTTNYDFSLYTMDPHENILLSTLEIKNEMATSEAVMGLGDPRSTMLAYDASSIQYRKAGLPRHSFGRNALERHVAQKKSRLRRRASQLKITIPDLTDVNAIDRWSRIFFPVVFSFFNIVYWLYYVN
T1 sequence (Q8N1C3 36-465): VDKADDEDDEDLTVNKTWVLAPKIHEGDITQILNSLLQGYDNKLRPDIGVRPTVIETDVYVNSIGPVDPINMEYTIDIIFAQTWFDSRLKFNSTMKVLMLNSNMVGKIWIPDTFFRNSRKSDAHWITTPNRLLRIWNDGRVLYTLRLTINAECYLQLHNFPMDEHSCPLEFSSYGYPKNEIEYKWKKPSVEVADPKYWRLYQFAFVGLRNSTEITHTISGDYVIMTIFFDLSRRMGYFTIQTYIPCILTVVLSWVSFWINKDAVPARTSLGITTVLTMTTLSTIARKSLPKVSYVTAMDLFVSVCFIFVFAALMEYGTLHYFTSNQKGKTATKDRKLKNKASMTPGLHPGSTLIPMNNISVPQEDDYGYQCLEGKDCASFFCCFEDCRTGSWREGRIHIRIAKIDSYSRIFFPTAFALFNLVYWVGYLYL
Experiment: Two-electrode voltage clamp electrophysiology in Xenopus oocytes, modulation of GABA EC20 current
Type: cell-based
Parameters: host or cells: Xenopus laevis oocytes, RNA micro-injection
Settings: Table 2; for Efficacy (GABA)%: % modulation of GABA EC20 = 100*(Fold increase−1), compound at approx. 30-fold Ki; for Fold increase h-GABA-A α2β2γ1 oocyte @ 30-fold Ki: compound at approx. 30-fold its Ki α2β2γ1, GABA EC20, Xenopus oocytes
How it was run: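 Oocytes injected with receptor subunit mRNA were recorded 3–5 days later by two-electrode voltage clamp at −80 mV, room temperature, pH 7.4. Compound was applied during a second GABA EC20 pulse, with at least 3 oocytes per concentration. Efficacy is the ratio-trace extremum, expressed as % modulation of GABA EC20.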

| SMILES | Efficacy (GABA)% [%] | Fold increase h-GABA-A α2β2γ1 oocyte @ 30-fold Ki |
| --- | --- | --- |
| Cn1cc(-c2nnc3n2-c2ccc(Cl)c(Cl)c2C(c2c(F)cccc2F)=NC3)cn1 [Example 28, 7,8-dichloro-6-(2,6-difluorophenyl)-1-(1-methylpyrazol-4-yl)-4H-[1,2,4]triazolo[4,3-a][1,4]benzodiazepine] | 59 | 1.59 |
| Fc1cccc(F)c1C1=NCc2nnc(-c3cccnn3)n2-c2ccc(C(F)(F)F)c(Cl)c21 [Example 38, 7-chloro-6-(2,6-difluorophenyl)-1-pyridazin-3-yl-8-(trifluoromethyl)-4H-[1,2,4]triazolo[4,3-a][1,4]benzodiazepine] | 114 | 2.14 |
| Fc1cccnc1C1=NCc2nnc(-c3ccncn3)n2-c2ccc(C(F)(F)F)c(Cl)c21 [Example 69, 7-chloro-6-(3-fluoro-2-pyridyl)-1-pyrimidin-4-yl-8-(trifluoromethyl)-4H-[1,2,4]triazolo[4,3-a][1,4]benzodiazepine] | 136 | 2.36 |
| Cc1nnc2n1-c1ccc(Cl)c(Cl)c1C(c1c(F)cccc1F)=NC2 [Example 5, 7,8-dichloro-6-(2,6-difluorophenyl)-1-methyl-4H-[1,2,4]triazolo[4,3-a][1,4]benzodiazepine] | 57 | 1.57 |
| Cc1ccc2c(c1Cl)C(c1c(F)cccc1F)=NCc1nnc(-c3cccnn3)n1-2 [Example 48, 7-chloro-6-(2,6-difluorophenyl)-8-methyl-1-pyridazin-3-yl-4H-[1,2,4]triazolo[4,3-a][1,4]benzodiazepine] | 101 | 2.01 |
| Cc1ccc2c(c1Cl)C(c1c(F)cccc1F)=NCc1nncn1-2 [Example 17, 7-chloro-6-(2,6-difluorophenyl)-8-methyl-4H-[1,2,4]triazolo[4,3-a][1,4]benzodiazepine] | 70 | 1.70 |
| O=c1[nH]nc2n1-c1ccc(Br)c(Cl)c1C(c1c(F)cccc1F)=NC2 [Example 13, 8-bromo-7-chloro-6-(2,6-difluorophenyl)-2,4-dihydro-[1,2,4]triazolo[4,3-a][1,4]benzodiazepin-1-one] | 52 | 1.52 |
| O=c1[nH]nc2n1-c1ccc(Cl)c(Cl)c1C(c1ncccc1F)=NC2 [Example 59, 7,8-dichloro-6-(3-fluoro-2-pyridyl)-2,4-dihydro-[1,2,4]triazolo[4,3-a][1,4]benzodiazepin-1-one] | 115 | 2.15 |
| Fc1cccc(F)c1C1=NCc2nnc(-c3cccnn3)n2-c2ccc(Cl)c(Cl)c21 [Example 14, 7,8-dichloro-6-(2,6-difluorophenyl)-1-pyridazin-3-yl-4H-[1,2,4]triazolo[4,3-a][1,4]benzodiazepine] | 71 | 1.71 |
| Fc1ccccc1C1=NCc2nnc(-c3cccnn3)n2-c2ccc(C(F)(F)F)c(Cl)c21 [Example 27, 7-chloro-6-(2-fluorophenyl)-1-pyridazin-3-yl-8-(trifluoromethyl)-4H-[1,2,4]triazolo[4,3-a][1,4]benzodiazepine] | 71 | 1.71 |
| Fc1cccnc1C1=NCc2nnc(C3CC3)n2-c2ccc(Cl)c(Cl)c21 [Example 65, 7,8-dichloro-1-cyclopropyl-6-(3-fluoro-2-pyridyl)-4H-[1,2,4]triazolo[4,3-a][1,4]benzodiazepine] | 114 | 2.14 |
| Cc1ccc2c(c1Cl)C(c1c(F)cccc1F)=NCc1nnc(-c3ccncn3)n1-2 [Example 49, 7-chloro-6-(2,6-difluorophenyl)-8-methyl-1-pyrimidin-4-yl-4H-[1,2,4]triazolo[4,3-a][1,4]benzodiazepine] | 57 | 1.57 |
| Fc1cccc(F)c1C1=NCc2nnc(C3CCOCC3)n2-c2ccc(Cl)c(Cl)c21 [Example 11, 7,8-dichloro-6-(2,6-difluorophenyl)-1-tetrahydropyran-4-yl-4H-[1,2,4]triazolo[4,3-a][1,4]benzodiazepine] | 60 | 1.60 |
| Cc1nnc2n1-c1ccc(Cl)c(Cl)c1C(c1ncccc1F)=NC2 [Example 71, 7,8-dichloro-6-(3-fluoro-2-pyridyl)-1-methyl-4H-[1,2,4]triazolo[4,3-a][1,4]benzodiazepine] | 99 | 1.99 |
| Fc1cccnc1C1=NCc2nnc(-c3cccnn3)n2-c2ccc(C(F)(F)F)c(Cl)c21 [Example 72, 7-chloro-6-(3-fluoro-2-pyridyl)-1-pyridazin-3-yl-8-(trifluoromethyl)-4H-[1,2,4]triazolo[4,3-a][1,4]benzodiazepine] | 630 | 7.30 |
| Fc1cccc(F)c1C1=NCc2nncn2-c2ccc(Br)c(Cl)c21 [Example 7, 8-bromo-7-chloro-6-(2,6-difluorophenyl)-4H-[1,2,4]triazolo[4,3-a][1,4]benzodiazepine] | 56 | 1.56 |
| Cc1ccc2c(c1Cl)C(c1c(F)cccc1F)=NCc1n[nH]c(=O)n1-2 [Example 16, 7-chloro-6-(2,6-difluorophenyl)-8-methyl-2,4-dihydro-[1,2,4]triazolo[4,3-a][1,4]benzodiazepin-1-one] | 68 | 1.68 |
| COc1ccc2c(c1Cl)C(c1c(F)cccc1F)=NCc1nnc(-c3ccncn3)n1-2 [Example 61, 7-chloro-6-(2,6-difluorophenyl)-8-methoxy-1-pyrimidin-4-yl-4H-[1,2,4]triazolo[4,3-a][1,4]benzodiazepine] | 61 | 1.61 |
